Data taken from patent US20130345199A1, “1-[M-CARBOXAMIDO(HETERO)ARYL-METHYL]-PIPERIDINE-4-CARBOXAMIDE DERIVATIVES” (Actelion Pharmaceuticals Ltd., priority 2012, published 2013).

Target: T1, CXCR7 (Homo sapiens, UniProt P25106)
T1 construct: host or cells: CHO-K1 (PathHunter CXCR7 b-arrestin cell line, stably transfected)
Assay: PathHunter CHO-K1 CXCR7 b-arrestin assay (agonistic activity)
Format: cell-based
Details: PathHunter CHO-K1 CXCR7 b-arrestin cell line, 90 minutes at 37° C.
Method: The […] receptor and CXCR7 agonistic activities of the compounds of formula (I) are determined in accordance with the following experimental method.
The assay is using the PathHunter™ CHO-K1 CXCR7 b-arrestin cell line from DiscoverX. The system is based on the Enzyme Fragment Complementation Technology. Two complementing fragments of the b-galactosidase enzyme are expressed within stably transfected cells. The larger portion of b-gal, termed EA for Enzyme Acceptor, is fused to the C-terminus of b-arrestin 2. The smaller fragment, termed ProLink™ tag, is fused to CXCR7 at the C-terminus. Upon activation, b-arrestin is recruited which forces the interaction of ProLink and EA, allowing complementation of the two fragments of b-gal and the formation of a functional enzyme which is capable of hydrolysing the substrate and generating a chemiluminescent signal.
CHO-K1 CXCR7 b-arrestin cells are detached from culture dishes with a cell dissociation buffer (Invitrogen, #13151-014) and collected in growing medium (F12HAMS 90% (v/v)/FCS 10% (v/v), Penicilin/streptomycin 1% (v/v)). 5000 cells per well (in 20 μl) are seeded in a 384 well plate (white-walled, clear bottom; BD Falcon #353274). The plate is incubated at 37° C./5% CO2 for 24 hours. Medium is then replaced by […] (Invitrogen #31985) for 3 to 4 hours. Test compounds are dissolved at 10 mM in DMSO and serially diluted in DMSO to 200× of the final concentration for dose response curves. Compounds are then diluted 1:33.3 in HBSS1X. 5 μl/well of HBSS1X/20 mM HEPES/0.2% BSA are added to the assay plate followed by addition of 5 μl/well of diluted compounds. CXCL12 (Peprotech #300-28A) may be used as a reference agonist. The plate is incubated for 90 minutes at 37° C. 12 μl of detection reagent (Path Hunter Detection Kit, DiscoveRx, #93-0001) is transferred to the assay plate and to the plate is incubated for 1 hour at room temperature. Luminescent signal is read in a microplate reader (FLUOstar Optima, bmg). The calculated EC50 values may fluctuate depending on the daily cellular assay performance. Fluctuations of this kind are known to those skilled in the art.

T1 sequence (P25106 whole entry): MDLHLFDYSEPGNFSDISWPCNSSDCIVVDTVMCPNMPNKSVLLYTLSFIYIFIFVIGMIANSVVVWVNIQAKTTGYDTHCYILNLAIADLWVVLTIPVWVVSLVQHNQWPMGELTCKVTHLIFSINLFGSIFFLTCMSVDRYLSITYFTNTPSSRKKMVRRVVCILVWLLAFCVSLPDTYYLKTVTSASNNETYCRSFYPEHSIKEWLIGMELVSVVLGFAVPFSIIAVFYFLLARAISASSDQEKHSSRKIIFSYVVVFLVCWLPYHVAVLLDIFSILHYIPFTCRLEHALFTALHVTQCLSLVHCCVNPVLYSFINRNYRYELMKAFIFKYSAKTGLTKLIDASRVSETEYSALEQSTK

| SMILES | EC50 [nM] |
| --- | --- |
| CCCCCCN(C)C(=O)C1CCN(Cc2cccc(NC(=O)c3cccc(C(F)(F)F)n3)c2)CC1 [Example 2.079] | 226 |
| CC(C)CCNC(=O)C1CCN(Cc2cccc(NC(=O)c3cccc(C(F)(F)F)n3)c2)CC1 [Example 2.081] | 5 |
| CC(C)(C)CCNC(=O)C1CCN(Cc2cccc(NC(=O)c3cccc(C(F)(F)F)n3)c2)CC1 [Example 2.082] | 121 |
| CC1CCC(NC(=O)C2CCN(Cc3cccc(NC(=O)c4cccc(C(F)(F)F)n4)c3)CC2)CC1 (centres unmarked) [Example 2.083] | 3 |
| CC(C)(CO)NC(=O)C1CCN(Cc2cccc(NC(=O)c3cccc(C(F)(F)F)n3)c2)CC1 [Example 2.091] | 6 |
| COCC(C)NC(=O)C1CCN(Cc2cccc(NC(=O)c3cccc(C(F)(F)F)n3)c2)CC1 (centres unmarked) [Example 2.092] | 3 |
| COC(C)CNC(=O)C1CCN(Cc2cccc(NC(=O)c3cccc(C(F)(F)F)n3)c2)CC1 (centres unmarked) [Example 2.093] | 6 |
| CCCNC(=O)C1CCN(Cc2cccc(NC(=O)c3cccc(C(F)(F)F)n3)c2)CC1 [Example 2.094] | 1 |
| CCCCNC(=O)C1CCN(Cc2cccc(NC(=O)c3cccc(C(F)(F)F)n3)c2)CC1 [Example 2.095] | 2 |
| O=C(Nc1cc(CN2CCC(C(=O)NC3CCCCC3)CC2)ccn1)c1ccc(F)cc1 [Example 3.001, 1-[2-(4-Fluoro-benzoylamino)-pyridin-4-ylmethyl]-piperidine-4-carboxylic acid cyclohexylamide] | 24 |
| O=C(Nc1cc(CN2CCC(C(=O)NC3CCCCC3)CC2)ccn1)c1ccc(Cl)cc1 [Example 3.002, 1-[2-(4-Chloro-benzoylamino)-pyridin-4-ylmethyl]-piperidine-4-carboxylic acid cyclohexylamide] | 57 |
| O=C(Nc1cccc(CN2CCC(C(=O)NC3CCCCC3)CC2)n1)c1ccc(F)cc1 [Example 3.003, 1-[6-(4-Fluoro-benzoylamino)-pyridin-2-ylmethyl]-piperidine-4-carboxylic acid cyclohexylamide] | 167 |
| O=C(Nc1cncc(CN2CCC(C(=O)NC3CCCCC3)CC2)c1)c1ccc(Cl)cc1 [Example 3.004, 1-[5-(4-Chloro-benzoylamino)-pyridin-3-ylmethyl]-piperidine-4-carboxylic acid cyclohexylamide] | 36 |
| O=C(Nc1cncc(CN2CCC(C(=O)NC3CCCCC3)CC2)c1)c1ccc(F)cc1 [Example 3.005, 1-[5-(4-Fluoro-benzoylamino)-pyridin-3-ylmethyl]-piperidine-4-carboxylic acid cyclohexylamide] | 57 |
| O=C(Nc1ccnc(CN2CCC(C(=O)NC3CCCCC3)CC2)c1)c1ccc(F)cc1 [Example 3.006, 1-[4-(4-Fluoro-benzoylamino)-pyridin-2-ylmethyl]-piperidine-4-carboxylic acid cyclohexylamide] | 56 |
| O=C(Nc1ccnc(CN2CCC(C(=O)NC3CCCCC3)CC2)c1)c1ccc(Cl)cc1 [Example 3.007, 1-[4-(4-Chloro-benzoylamino)-pyridin-2-ylmethyl]-piperidine-4-carboxylic acid cyclohexylamide] | 28 |
| CC(C)(C)NC(=O)C1CCN(Cc2csc(NC(=O)c3ccc(F)cc3)c2)CC1 [Example 3.008, 1-[5-(4-Fluoro-benzoylamino)-thiophen-3-ylmethyl]-piperidine-4-carboxylic acid tert-butylamide] | 3 |
| CC(C)(C)NC(=O)C1CCN(Cc2cc(NC(=O)c3ccc(F)cc3)cs2)CC1 [Example 3.009, 1-[4-(4-Fluoro-benzoylamino)-thiophen-2-ylmethyl]-piperidine-4-carboxylic acid tert-butylamide] | 4 |

| SMILES | EC50 [nM] |
| --- | --- |
| CC(C)(C)NC(=O)C1CCN(Cc2csc(NC(=O)Cc3ccccc3Cl)c2)CC1 [Example 3.010, 1-{5-[2-(2-Chloro-phenyl)-acetylamino]-thiophen-3-ylmethyl}-piperidine-4-carboxylic acid tert-butylamide] | 41 |
| CC(C)(C)NC(=O)C1CCN(Cc2cc(NC(=O)Cc3ccccc3Cl)cs2)CC1 [Example 3.011, 1-{4-[2-(2-Chloro-phenyl)-acetylamino]-thiophen-2-ylmethyl}-piperidine-4-carboxylic acid tert-butylamide] | 28 |
| Cc1cncc(C(=O)Nc2cc(CN3CCC(C(=O)NC(C)(C)C)CC3)cs2)c1 [Example 3.012, N-[4-(4-tert-Butylcarbamoyl-piperidin-1-ylmethyl)-thiophen-2-yl]-5-methyl-nicotinamide] | 44 |
| Cc1cncc(C(=O)Nc2csc(CN3CCC(C(=O)NC(C)(C)C)CC3)c2)c1 [Example 3.013, N-[5-(4-tert-Butylcarbamoyl-piperidin-1-ylmethyl)-thiophen-3-yl]-5-methyl-nicotinamide] | 13 |
| Cc1cncc(C(=O)Nc2cccc(CN3CCC(F)(C(=O)NC4CCCCC4)CC3)c2)c1 [Example 4.001, N-[3-(4-Cyclohexylcarbamoyl-4-fluoro-piperidin-1-ylmethyl)-phenyl]-5-methyl-nicotinamide] | 46 |
| Cc1cncc(C(=O)Nc2cccc(CN3CCC(F)(C(=O)NC(C)(C)C)CC3)c2)c1 [Example 4.002, N-[3-(4-tert-Butylcarbamoyl-4-fluoro-piperidin-1-ylmethyl)-phenyl]-5-methyl-nicotinamide] | 16 |
| Cc1cncc(C(=O)Nc2cccc(CN3CCC(C)(C(=O)NC4CCCCC4)CC3)c2)c1 [Example 4.003, N-[3-(4-Cyclohexylcarbamoyl-4-methyl-piperidin-1-ylmethyl)-phenyl]-5-methyl-nicotinamide] | 197 |
| Cc1cncc(C(=O)Nc2cccc(CN3CCC(C)(C(=O)NC(C)(C)C)CC3)c2)c1 [Example 4.004, N-[3-(4-tert-Butylcarbamoyl-4-methyl-piperidin-1-ylmethyl)-phenyl]-5-methyl-nicotinamide] | 59 |
| O=C(Nc1cccc(CN2CCC(C(=O)NC3CCCCC3)CC2)c1)c1ccc(F)c[n+]1[O-] [Example 4.005, 5-Fluoro-1-oxy-pyridine-2-carboxylic acid [3-(4-cyclohexylcarbamoyl-piperidin-1-ylmethyl)-phenyl]-amide] | 4 |
| O=C(Nc1cccc(CN2CCC(C(=O)NC3CCCC3)CC2)c1)c1ccc(F)c[n+]1[O-] [Example 4.006, 5-Fluoro-1-oxy-pyridine-2-carboxylic acid [3-(4-cyclopentylcarbamoyl-piperidin-1-ylmethyl)-phenyl]-amide] | 1 |
| CC(C)(C)NC(=O)C1CCN(Cc2cccc(NC(=O)c3ccc(F)c[n+]3[O-])c2)CC1 [Example 4.007, 5-Fluoro-1-oxy-pyridine-2-carboxylic acid [3-(4-tert-butylcarbamoyl-piperidin-1-ylmethyl)-phenyl]-amide] | 3 |
| O=C(Nc1cccc(CN2CCC(F)(C(=O)NC3CCCCC3)CC2)c1)c1cccc(C(F)(F)F)n1 [Example 4.008, 6-Trifluoromethyl-pyridine-2-carboxylic acid [3-(4-cyclohexylcarbamoyl-4-fluoro-piperidin-1-ylmethyl)-phenyl]-amide] | 71 |
| CC(C)(C)NC(=O)C1(F)CCN(Cc2cccc(NC(=O)c3cccc(C(F)(F)F)n3)c2)CC1 [Example 4.009, 6-Trifluoromethyl-pyridine-2-carboxylic acid [3-(4-tert-butylcarbamoyl-4-fluoro-piperidin-1-ylmethyl)-phenyl]-amide] | 20 |
| CC1(C(=O)NC2CCCCC2)CCN(Cc2cccc(NC(=O)c3cccc(C(F)(F)F)n3)c2)CC1 [Example 4.010, 6-Trifluoromethyl-pyridine-2-carboxylic acid [3-(4-cyclohexylcarbamoyl-4-methyl-piperidin-1-ylmethyl)-phenyl]-amide] | 57 |
| CC(C)(C)NC(=O)C1(C)CCN(Cc2cccc(NC(=O)c3cccc(C(F)(F)F)n3)c2)CC1 [Example 4.011, 6-Trifluoromethyl-pyridine-2-carboxylic acid [3-(4-tert-butylcarbamoyl-4-methyl-piperidin-1-ylmethyl)-phenyl]-amide] | 13 |
| COc1cncc(C(=O)Nc2cccc(CN3CCC(C(=O)NC4CCCCC4)CC3)c2)c1 [Example 4.012, N-[3-(4-Cyclohexylcarbamoyl-piperidin-1-ylmethyl)-phenyl]-5-methoxy-nicotinamide] | 10 |
| COc1cncc(C(=O)Nc2cccc(CN3CCC(C(=O)NC4CCCC4)CC3)c2)c1 [Example 4.013, N-[3-(4-Cyclopentylcarbamoyl-piperidin-1-ylmethyl)-phenyl]-5-methoxy-nicotinamide] | 9 |
